Reference: patent US20140249135A1, “PIM KINASE INHIBITORS AND METHODS OF THEIR USE” (NOVARTIS AG, priority 2007, published 2014)
Like-named read-outs stand apart in the source and are kept apart here.

Assays:
Assay type in all cases: biochemical
[1] = target: T1, human full length PKCE enzyme (Homo sapiens, UniProt Q02156); assay: In vitro PKCE assay; details: 10 nM enzyme, 40 uM peptide substrate, 20 uM ATP, KinaseGlo Plus readout; read-out: PKCε IC50
T1 construct: human full length PKCE enzyme purchased from InVitrogen; purchased InVitrogen
T1 sequence (Q02156 1-737): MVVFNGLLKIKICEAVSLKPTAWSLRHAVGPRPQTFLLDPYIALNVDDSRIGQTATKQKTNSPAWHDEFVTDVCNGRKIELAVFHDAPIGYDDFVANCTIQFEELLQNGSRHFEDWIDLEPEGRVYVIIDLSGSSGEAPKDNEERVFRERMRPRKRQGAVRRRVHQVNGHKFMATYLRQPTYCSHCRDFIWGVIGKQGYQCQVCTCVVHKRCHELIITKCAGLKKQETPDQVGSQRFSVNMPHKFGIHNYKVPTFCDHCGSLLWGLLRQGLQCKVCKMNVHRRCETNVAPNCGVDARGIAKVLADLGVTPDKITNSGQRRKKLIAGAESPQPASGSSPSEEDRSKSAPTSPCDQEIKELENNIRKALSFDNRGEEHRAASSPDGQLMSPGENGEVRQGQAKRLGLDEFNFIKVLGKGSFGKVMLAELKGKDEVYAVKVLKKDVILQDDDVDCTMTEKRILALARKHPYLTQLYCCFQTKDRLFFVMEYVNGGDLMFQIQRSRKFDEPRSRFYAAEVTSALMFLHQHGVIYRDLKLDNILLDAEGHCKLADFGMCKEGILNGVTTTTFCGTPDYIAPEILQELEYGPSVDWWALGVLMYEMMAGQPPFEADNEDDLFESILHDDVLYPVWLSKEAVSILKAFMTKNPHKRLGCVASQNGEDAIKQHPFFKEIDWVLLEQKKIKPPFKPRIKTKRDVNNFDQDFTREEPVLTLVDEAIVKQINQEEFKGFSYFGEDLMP

Pim2 kinase = Pim2 kinase (Homo sapiens, UniProt Q9P1W9); assay: Pim2 ATP depletion assay;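 note: Luciferase-based luminescent readout of ATP remaining after PIM2 phosphorylates a BAD peptide, final 5 nM enzyme, 4 µM ATP, 10 µM peptide, 2.5% DMSO, run to roughly half ATP consumption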
Pim3 kinase = Pim3 kinase (Homo sapiens, UniProt Q86V86); assay: Pim3 ATP depletion assay
Pim1 kinase = Pim1 kinase (Homo sapiens, UniProt P11309); assay: Pim1 ATP depletion assay; details: Pim1 ATP depletion assay;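 note: Luciferase-luciferin luminescence readout of residual ATP after PIM1 transfers phosphate to a peptide substrate, 40 µM ATP added, reaction run to roughly half ATP consumption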
Chain of Pim1 kinase (P11309 whole entry): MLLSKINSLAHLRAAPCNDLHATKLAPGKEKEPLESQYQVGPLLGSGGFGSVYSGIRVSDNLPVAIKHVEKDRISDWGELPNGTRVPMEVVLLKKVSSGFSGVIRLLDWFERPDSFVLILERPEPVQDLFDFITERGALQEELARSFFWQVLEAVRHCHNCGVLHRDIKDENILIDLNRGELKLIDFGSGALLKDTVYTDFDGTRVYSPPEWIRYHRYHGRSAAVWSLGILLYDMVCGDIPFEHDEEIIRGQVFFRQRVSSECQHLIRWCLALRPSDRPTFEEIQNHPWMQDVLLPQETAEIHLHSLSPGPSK

Chain of Pim2 kinase (Q9P1W9 whole entry): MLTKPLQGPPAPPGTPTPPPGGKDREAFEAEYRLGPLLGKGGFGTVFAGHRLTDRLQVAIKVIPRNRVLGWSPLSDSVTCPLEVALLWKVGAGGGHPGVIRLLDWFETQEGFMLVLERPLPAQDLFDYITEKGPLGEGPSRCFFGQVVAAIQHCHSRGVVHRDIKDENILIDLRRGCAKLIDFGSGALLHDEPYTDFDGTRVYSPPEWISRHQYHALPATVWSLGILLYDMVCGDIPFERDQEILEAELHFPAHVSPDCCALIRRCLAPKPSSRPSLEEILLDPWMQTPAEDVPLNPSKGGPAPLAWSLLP

| IC50 [1] [nM] | IC50 (Pim2 kinase; read-out: PIM2 IC50) [µM] | IC50 (Pim3 kinase; read-out: PIM3 IC50) [µM] | IC50 (Pim1 kinase; read-out: PIM1 IC50) [µM] | IC50 (Pim2 kinase; read-out: IC50 (μM) PIM2) [µM] | IC50 (Pim3 kinase; read-out: IC50 (μM) PIM3) [µM] | IC50 (Pim1 kinase; read-out: IC50 (μM) PIM1) [µM] | Compound |
| --- | --- | --- | --- | --- | --- | --- | --- |
| 1000 to 10000 | – | – | – | – | – | – | Cn1cccc1-c1cnc(=O)[nH]c1NC(=O)c1nc(Br)cnc1N [Example 144, 3-amino-6-bromo-N-[5-(1-methyl-1H-pyrrol-2-yl)-2-oxo-2,3-dihydropyrimidin-4-yl]-pyrazine-2-carboxamide] |
| 1000 to 10000 | – | – | – | – | – | – | NC(=O)c1ccc(N2CCCCC2)c(NC(=O)c2nccnc2N)c1 [Example 129, 3-amino-N-(5-carbamoyl-2-piperidin-1-ylphenyl)pyrazine-2-carboxamide] |
| > 25000 | – | – | – | – | – | – | Nc1nccnc1C(=O)Nc1cnccc1N1CCC(N)C1 (centres unmarked) [Example 190, 3-amino-N-[4-(3-amino-pyrrolidin-1-yl)pyridin-3-yl]-pyrazine-2-carboxamide] |
| 1000 to 10000 | – | – | – | – | – | – | Nc1ncc(-c2ccncc2)nc1C(=O)Nc1cnccc1N1CCCC(N)C1 (centres unmarked) [Example 354, 3-amino-6-pyridin-4-yl-pyrazine-2-carboxylic acid (3-amino-3,4,5,6-tetrahydro-2H-[1,4′]bipyridinyl-3′-yl)-amide] |
| 1000 to 10000 | – | – | – | – | – | – | Nc1nccnc1C(=O)Nc1[nH]c(=O)ncc1N1CCC(F)CC1 [Example 149, 3-amino-N-[5-(4-fluoro-piperidin-1-yl)-2-oxo-2,3-dihydropyrimidin-4-yl]pyrazine-2-carboxamide] |
| – | < 1 | < 1 | < 1 | – | – | – | CC(C)Oc1ccc(F)c(-c2nc(C(=O)Nc3cnccc3N3CC[C@@H](N)[C@H](O)C3)c(N)cc2F)c1F [Example 666, 3-Amino-6-(2,6-difluoro-3-isopropoxy-phenyl)-5-fluoro-pyridine-2-carboxylic acid (4-amino-3-hydroxy-3,4,5,6-tetra-hydro-2H-[1,4′]bipyridinyl-3′-yl)-amide] |
| – | – | – | – | < 1 | < 1 | < 1 | Nc1ccc(-c2cccc(C(F)(F)F)c2)nc1C(=O)Nc1cnccc1N1CCC[C@H](N)C1 [Example 460, 3-Amino-6-(3-trifluoromethyl-phenyl)-pyridine-2-carboxylic acid (3-amino-3,4,5,6-tetrahydro-2H-[1,4′]bipyridinyl-3′-yl)-amide] |
| – | < 1 | 1 to 10 | < 1 | – | – | – | NC1CC(CO)CN(c2ccncc2NC(=O)c2nc(-c3c(F)cccc3F)ccc2F)C1 (centres unmarked) [Example 575, 6-(2,6-Difluoro-phenyl)-3-fluoro-pyridine-2-carboxylic acid (5-amino-3-hydroxymethyl-3,4,5,6-tetrahydro-2H-[1,4′]bipyridinyl-3′-yl)-amide] |
| – | < 1 | < 1 | < 1 | – | – | – | Cc1ccnc(-c2ccc(N)c(C(=O)Nc3cnccc3N3CCC[C@H](N)C3)n2)c1F [Example 707, 5-Amino-3′-fluoro-4′-methyl-[2,2′]bipyridinyl-6-carboxylic acid (3-amino-3,4,5,6-tetra-hydro-2H-[1,4′]bipyridinyl-3′-yl)-amide] |
| – | < 1 | < 1 | < 1 | – | – | – | COc1ccc(-c2ccc(N)c(C(=O)Nc3cnccc3N3CCC[C@H](N)C3)n2)nc1 [Example 696, 5-Amino-5′-methoxy-[2,2′]bi-pyridinyl-6-carboxylic acid (3-amino-3,4,5,6-tetrahydro-2H-[1,4′]bipyridinyl-3′-yl)-amide] |
| – | – | – | – | < 1 | < 1 | < 1 | COc1cccc(-c2ccc(N)c(C(=O)Nc3cnccc3N3CCC[C@H](N)C3)n2)c1F [Example 471, 3-Amino-6-(2-fluoro-3-methoxy-phenyl)-pyridine-2-carboxylic acid (3-amino-3,4,5,6-tetrahydro-2H-[1,4′]bipyridinyl-3′-yl)-amide] |
| – | – | – | – | < 1 | < 1 | < 1 | Cc1nc(N)cc(-c2ccncc2NC(=O)c2nc(-c3cc(C(=O)NC(C)C)ccc3F)ccc2N)n1 [Example 273, 3-Amino-6-(2-fluoro-5-isopropylcarbamoyl-phenyl)-pyridine-2-carboxylic acid [4-(6-amino-2-methyl-pyrimidin-4-yl)-pyridin-3-yl]-amide] |
| – | – | – | – | < 1 | < 1 | < 1 | Nc1ccc(-c2ccc(-c3cccs3)s2)nc1C(=O)Nc1cnccc1N1CCC[C@H](N)C1 [Example 446, 3-Amino-6-[2,2′]bithiophenyl-5-yl-pyridine-2-carboxylic acid (3-amino-3,4,5,6-tetrahydro-2H-[1,4′]bipyridinyl-3′-yl)-amide] |
| – | < 1 | < 1 | < 1 | – | – | – | Nc1ccc(-c2nccs2)nc1C(=O)Nc1cnccc1N1CC[C@@H](O)[C@H](N)C1 [Example 669, 3-Amino-6-thiazol-2-yl-pyridine-2-carboxylic acid (3-amino-4-hydroxy-3,4,5,6-tetra-hydro-2H-[1,4′]bipyridinyl-3′-yl)-amide] |
| – | < 1 | < 1 | < 1 | – | – | – | COc1nc(-c2ccc(N)c(C(=O)Nc3cnccc3N3CCC[C@H](N)C3)n2)ccc1N [Example 705, 5,5′-Diamino-6′-methoxy-[2,2′]bipyridinyl-6-carboxylic acid (3-amino-3,4,5,6-tetra-hydro-2H-[1,4′]bipyridinyl-3′-yl)-amide] |
| – | < 1 | < 1 | < 1 | – | – | – | Nc1ccc(-c2ccc(CN3CCOCC3)cc2)nc1C(=O)Nc1cnccc1N1CCC[C@H](N)C1 [Example 567, 3-Amino-6-(4-morpholin-4-ylmethyl-phenyl)-pyridine-2-carboxylic acid (3-amino-3,4,5,6-tetrahydro-2H-[1,4′]bipyridinyl-3′-yl)-amide] |
| – | < 1 | < 1 | < 1 | – | – | – | CC(C)Oc1ccc(F)c(-c2ccc(N)c(C(=O)Nc3cnccc3N3CC[C@@H](N)[C@H](O)C3)n2)c1F (stereo in doubt) [Example 667, 3-Amino-6-(2,6-difluoro-3-isopropoxy-phenyl)-pyridine-2-carboxylic acid (4-amino-3-hydroxy-3,4,5,6-tetrahydro-2H-[1,4′]bipyridinyl-3′-yl)-amide] |
| – | < 1 | < 1 | < 1 | – | – | – | Nc1cnc(-c2ccccc2)nc1C(=O)Nc1cnccc1N1CC[C@@H](O)[C@H](N)C1 (stereo in doubt) [Example 670, 5-Amino-2-phenyl-pyrimidine-4-carboxylic acid (3-amino-4-hydroxy-3,4,5,6-tetrahydro-2H-[1,4′]bipyridinyl-3′-yl)-amide] |
| – | < 1 | < 1 | < 1 | – | – | – | Nc1cnc(-c2cccc(F)c2F)nc1C(=O)Nc1cnccc1N1CCC[C@H](N)C1 [Example 546, 5-Amino-2-(2,3-difluoro-phenyl)-pyrimidine-4-carboxylic acid (3-amino-3,4,5,6-tetrahydro-2H-[1,4′]bipyridinyl-3′-yl)-amide] |
| – | < 1 | < 1 | < 1 | – | – | – | Nc1cc(-c2ccncc2NC(=O)c2nc(-c3nccs3)ccc2N)nc(C(F)(F)F)n1 [Example 642, 3-amino-N-{4-[6-amino-2-(trifluoromethyl)pyrimidin-4-yl]pyridin-3-yl}-6-(1,3-thiazol-2-yl)pyridine-2-carboxamide] |
| – | < 1 | < 1 | < 1 | – | – | – | Nc1ccc(-c2cccc(Cl)c2F)nc1C(=O)Nc1cnccc1N1CCCC(O)C1 (centres unmarked) [Example 655, 3-Amino-6-(3-chloro-2-fluoro-phenyl)-pyridine-2-carboxylic acid (3-hydroxy-3,4,5,6-tetra-hydro-2H-[1,4′]bipyridinyl-3′-yl)-amide] |
| – | < 1 | < 1 | < 1 | – | – | – | CC(C)NC(=O)c1ccc(F)c(-c2ccc(N)c(C(=O)Nc3cnccc3-c3cc(N)nc(C(F)(F)F)n3)n2)c1 [Example 554, 3-Amino-6-(2-fluoro-5-isopropylcarbamoyl-phenyl)-pyridine-2-carboxylic acid [4-(6-amino-2-trifluoromethyl-pyrimidin-4-yl)-pyridin-3-yl]-amide] |
| – | – | – | – | < 1 | < 1 | < 1 | Cc1nc(N)cc(-c2ccncc2NC(=O)c2nc(-c3c(F)cccc3F)ccc2N)n1 [Example 274, 3-Amino-6-(2,6-difluoro-phenyl)-pyridine-2-carboxylic acid [4-(6-amino-2-methyl-pyrimidin-4-yl)-pyridin-3-yl]-amide] |
| – | – | – | – | < 1 | < 1 | < 1 | COc1ccc(F)c(-c2nc(C(=O)Nc3cnccc3N3CCC[C@H](N)C3)c(N)cc2F)c1F [Example 510, 3-Amino-6-(2,6-difluoro-3-methoxy-phenyl)-5-fluoro-pyridine-2-carboxylic acid (3-amino-3,4,5,6-tetrahydro-2H-[1,4′]bipyridinyl-3′-yl)-amide] |
